# Results reported in US10618916B2, “Heterocyclic compounds as immunomodulators” (Incyte Corporation, priority 2018, dated 2020).
# Read-outs that look alike come from different tables or passages of the source.
# Columns and labels:
# [1] = test system: PD-L1 aAPC/CHO-K1 cells and Jurkat-PD-1-NFAT effector cells; assay: Nuclear factor of activated T-cells (NFAT) assay; assay type: cell-based
# Method: Example C. Nuclear Factor of Activated T-Cells (NFAT) Assay
# PD-L1 aAPC/CHO-K1 cells (Promega) were maintained in F-12 medium with addition of 10% FBS, 200 μg/ml Hygromycin B, 250 μg/ml Geneticin (G418). Jurkat-PD-1-NFAT effector cells (Promega) were cultured in RPMI 1640 medium supplemented with 10% FBS, 100 μg/ml Hygromycin B, 500 μg/ml G418. The culture media of PD-L1 aAPC/CHO-K1 cells were first replaced with assay medium (RPMI1640 medium with 1% FBS). The PD-L1 aAPC/CHO-K1 cells were then added in a white 384-well white clear bottom assay plate (CELLCOAT® Tissue Culture Plates, Greiner Bio-One) at 8000 per well in 10 μL assay medium. Test compounds were prepared by serial dilution in DMSO and 0.8 μL test compounds in DMSO were first transferred to the 384 REMP plate well (Thermofisher) by PlateMate Plus (Thermofisher) followed with addition of 50 μL plating medium. 5 μL compounds in the assay medium were transferred to the cells with 0.4% DMSO in the final assay at 2 μM. After removing the culture media, 10,000 Jurkat-PD-1-NFAT effector cells in 5 μL assay medium was dispensed into each well. The assay plate was incubated at 37° C., 5% CO2 for 24 hours. After the assay plate was equilibrated to room temp for 15 minutes, 20 µL/well of Bio-Glo™ reagent (Promega) were added. After 8 minutes incubation at room temperature, luminescence was read at with Pherastar microplate reader (BMG Labtech). The fold of induction (FOI) was calculated based on the ratio of luminescence normalized to the DMSO wells within each assay plate. The maximum percentage of induction was reported based on the ratio between the highest FOI of each compound and the maximum FOI of control compound within each assay plate. Wells with DMSO were served as the negative controls and wells containing control compound with the highest FOI were used as positive controls. EC50 determination was performed by fitting the curve of percent control activity versus the log of the compound concentration using the GraphPad Prism 6.0 software.
# [2] = target: PD-1/PD-L1 protein/protein interaction (recombinant human PD-L1 and human PD-1) (Homo sapiens (Human), UniProt Q9NZQ7); assay: Homogeneous Time-Resolved Fluorescence (HTRF) PD-1/PD-L1 binding assay
# Chain of PD-1/PD-L1 protein/protein interaction (recombinant human PD-L1 and human PD-1) (Q9NZQ7 19-238): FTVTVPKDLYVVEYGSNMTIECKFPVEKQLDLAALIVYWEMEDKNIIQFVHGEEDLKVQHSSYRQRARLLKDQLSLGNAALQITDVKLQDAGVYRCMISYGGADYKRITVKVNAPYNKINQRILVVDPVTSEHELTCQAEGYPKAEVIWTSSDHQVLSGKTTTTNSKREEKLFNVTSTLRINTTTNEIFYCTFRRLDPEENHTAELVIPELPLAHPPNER
# Method: Example A. Homogeneous Time-Resolved Fluorescence (HTRF) PD-1/PD-L1 Binding Assay
# The assays were conducted in a standard black 384-well polystyrene plate with a final volume of 20 μL. Inhibitors were first serially diluted in DMSO and then added to the plate wells before the addition of other reaction components. The final concentration of DMSO in the assay was 1%. The assays were carried out at 25° C. in the PBS buffer (pH 7.4) with 0.05% Tween-20 and 0.1% BSA. Recombinant human PD-L1 protein (19-238) with a His-tag at the C-terminus was purchased from AcroBiosystems (PD1-H5229). Recombinant human PD-1 protein (25-167) with Fc tag at the C-terminus was also purchased from AcroBiosystems (PD1-H5257). PD-L1 and PD-1 proteins were diluted in the assay buffer and 10 μL was added to the plate well. Plates were centrifuged and proteins were preincubated with inhibitors for 40 minutes. The incubation was followed by the addition of 10 μL of HTRF detection buffer supplemented with Europium cryptate-labeled anti-human IgG (PerkinElmer-AD0212) specific for Fc and anti-His antibody conjugated to SureLight®-Allophycocyanin (APC, PerkinElmer-AD0059H). After centrifugation, the plate was incubated at 25° C. for 60 min. before reading on a PHERAstar FS plate reader (665 nm/620 nm ratio). Final concentrations in the assay were—3 nM PD1, 10 nM PD-L1, 1 nM europium anti-human IgG and 20 nM anti-His-Allophycocyanin. IC50 determination was performed by fitting the curve of percent control activity versus the log of the inhibitor concentration using the GraphPad Prism 5.0 software.
# [3] = test system: U2OS/PD-L1 cells and Jurkat-PD-1-SHP cells; assay: Src homology region 2 domain-containing phosphatase (SHP) assay; assay type: cell-based
# Method: Example B. Src Homology Region 2 Domain-Containing Phosphatase (SHP) Assay
# U2OS/PD-L1 cells (DiscoveRx Corporation) were maintained in McCoy's 5A medium with addition of 10% FBS, 0.25 μg/ml Puromycin. After removing the culture media, the cell medium was replaced with assay medium (RPMI1640 medium with 1% FBS). The U2OS/PD-L1 cells were then added in 384-well black clear bottom assay plate (CELLCOAT® Tissue Culture Plates, Greiner Bio-One) at 5000 cells per well in 20 μL assay medium. Test compounds were prepared by serial dilution in DMSO and 125 nL compound were first transferred to the 384 REMP plate well (Thermofisher) by ECHO liquid handler (Labcyte) followed with addition of 27.5 μL assay medium. 5 μL/well compounds in the assay medium were transferred to the cell plate with 0.05% DMSO in the final assay at […]. Jurkat-PD-1-SHP cells (DiscoveRx Corporation) were cultured in RPMI1640 medium supplemented with 10% FBS, 250 μg/ml Hygromycin B, 500 μg/ml G418. After the replacement of culture media with assay medium, 5,000 Jurkat-PD-1-SHP cells in 20 μL were dispensed into each well. The assay plate was incubated at 37° C., 5% CO2 for 2 hours before 2.5 μL PathHunter reagent 1 (DiscoveRx Corporation) were added to each well. The assay plate was shaken for 1 min at 350 rpm in the dark followed with addition of 10 μL PathHunter reagent 2 (DiscoveRx Corporation). Chemiluminescent signal was recorded with TopCount reader (Perkin Elmer) after incubation at room temperature for 1 hour. Wells with DMSO were served as the positive controls and wells containing no cells were used as negative controls. IC50 determination was performed by fitting the curve of percentage of control activity versus the log of the compound concentration using the GraphPad Prism 6.0 software.
Compound,IC50 [2] [µM],IC50 [3] [µM],"IC50 ([3]; Homo sapiens, U2OS) [µM]",EC50 [1] [µM],"EC50 ([1]; Cricetulus griseus, CHO-K1) [µM]"
"Cc1c(NC(=O)c2nc3c(n2C)CCN(C2CCC(O)CC2)C3)cccc1-c1cccc(NC(=O)c2nc3c(n2C)CCN(CCC24CCC(C(=O)O)(CC2)C4)C3)c1Cl (single isomer, unassigned) [61 (compound 2), 4-(2-(2-((2-chloro-3′-(5-(4-hydroxycyclohexyl)-1-methyl-4,5,6,7-tetrahydro-1H-imidazo[4,5-c]pyridine-2-carboxamido)-2′-methyl-[1,1′-biphenyl]-3-yl)carbamoyl)-1-methyl-1,4,6,7-tetrahydro-5H-imidazo[4,5-c]pyridin-5-yl)ethyl)bicyclo[2.2.1]heptane-1-carboxylic acid]",≤ 0.005,≤ 0.01,,0.01 to 0.1,
"Cc1c(NC(=O)c2nc3c(n2C)CCN(C)C3)cccc1-c1cccc(NC(=O)c2nc3c(n2C)CCN(CCC24CCC(C(=O)O)(CC2)C4)C3)c1Cl [Example 29, 4-(2-(2-((2-chloro-3′-(1,5-dimethyl-4,5,6,7-tetrahydro-1H-imidazo[4,5-c]pyridine-2-carboxamido)-2′-methyl-[1,1′-biphenyl]-3-yl)carbamoyl)-1-methyl-1,4,6,7-tetrahydro-5H-imidazo[4,5-c]pyridin-5-yl)ethyl)bicyclo[2.2.1]heptane-1-carboxylic acid]",≤ 0.005,,≤ 0.01,,0.01 to 0.1
"Cn1c(C(=O)Nc2cccc(-c3cccc(NC(=O)c4nc5c(n4C)CCN(C4CCOCC4)C5)c3C#N)c2Cl)nc2c1CCN(CCC13CCC(C(=O)O)(CC1)C3)C2 [Example 47, 4-(2-(2-((2-chloro-2′-cyano-3′-(1-methyl-5-(tetrahydro-2H-pyran-4-yl)-4,5,6,7-tetrahydro-1H-imidazo[4,5-c]pyridine-2-carboxamido)-[1,1′-biphenyl]-3-yl)carbamoyl)-1-methyl-1,4,6,7-tetrahydro-5H-imidazo[4,5-c]pyridin-5-yl)ethyl)bicyclo[2.2.1]heptane-1-carboxylic acid]",≤ 0.005,,,,0.01 to 0.1
"C[C@@H](O)CN1CCc2c(nc(C(=O)Nc3cccc(-c4cccc(NC(=O)c5nc6c(n5C)CCN(CCC57CCC(C(=O)O)(CC5)C7)C6)c4Cl)c3C#N)n2C)C1 [Example 49, (R)-4-(2-(2-((2-chloro-2′-cyano-3′-(5-(2-hydroxypropyl)-1-methyl-4,5,6,7-tetrahydro-1H-imidazo[4,5-c]pyridine-2-carboxamido)-[1,1′-biphenyl]-3-yl)carbamoyl)-1-methyl-1,4,6,7-tetrahydro-5H-imidazo[4,5-c]pyridin-5-yl)ethyl)bicyclo[2.2.1]heptane-1-carboxylic Acid]",≤ 0.005,,,,0.01 to 0.1
"Cn1c(C(=O)Nc2cccc(-c3cccc(NC(=O)c4nc5c(n4C)CCN(CCO)C5)c3C#N)c2Cl)nc2c1CCN(CCC13CCC(C(=O)O)(CC1)C3)C2 [Example 50, 4-(2-(2-((2-chloro-2′-cyano-3′-(5-(2-hydroxyethyl)-1-methyl-4,5,6,7-tetrahydro-1H-imidazo[4,5-c]pyridine-2-carboxamido)-[1,1′-biphenyl]-3-yl)carbamoyl)-1-methyl-1,4,6,7-tetrahydro-5H-imidazo[4,5-c]pyridin-5-yl)ethyl)bicyclo[2.2.1]heptane-1-carboxylic acid]",≤ 0.005,,,,0.01 to 0.1

# Continued, in another order:
IC50 [2] [µM],IC50 [3] [µM],"IC50 ([3]; Homo sapiens, U2OS) [µM]",Compound,EC50 [1] [µM],"EC50 ([1]; Cricetulus griseus, CHO-K1) [µM]"
≤ 0.005,,≤ 0.01,"CN1CCc2c(nc(C(=O)Nc3cccc(-c4cccc(NC(=O)c5nc6c(n5C)CCN(CCC57CCC(C(=O)O)(CC5)C7)C6)c4Cl)c3Cl)n2C)C1 [Example 3, 4-(2-(2-((2,2′-dichloro-3′-(1,5-dimethyl-4,5,6,7-tetrahydro-1H-imidazo[4,5-c]pyridine-2-carboxamido)-[1,1′-biphenyl]-3-yl)carbamoyl)-1-methyl-1,4,6,7-tetrahydro-5H-imidazo[4,5-c]pyridin-5-yl)ethyl)bicyclo[2.2.1]heptane-1-carboxylic acid]",,0.01 to 0.1
≤ 0.005,,≤ 0.01,"CCN1CCc2c(nc(C(=O)Nc3cccc(-c4cccc(NC(=O)c5nc6c(n5C)CCN(CCC57CCC(C(=O)O)(CC5)C7)C6)c4Cl)c3Cl)n2C)C1 [Example 4, 4-(2-(2-((2,2′-dichloro-3′-(5-ethyl-1-methyl-4,5,6,7-tetrahydro-1H-imidazo[4,5-c]pyridine-2-carboxamido)-[1,1′-biphenyl]-3-yl)carbamoyl)-1-methyl-1,4,6,7-tetrahydro-5H-imidazo[4,5-c]pyridin-5-yl)ethyl)bicyclo[2.2.1]heptane-1-carboxylic acid]",,0.01 to 0.1
≤ 0.005,,≤ 0.01,"CC(C)N1CCc2c(nc(C(=O)Nc3cccc(-c4cccc(NC(=O)c5nc6c(n5C)CCN(CCC57CCC(C(=O)O)(CC5)C7)C6)c4Cl)c3Cl)n2C)C1 [Example 5, 4-(2-(2-((2,2′-dichloro-3′-(5-isopropyl-1-methyl-4,5,6,7-tetrahydro-1H-imidazo[4,5-c]pyridine-2-carboxamido)-[1,1′-biphenyl]-3-yl)carbamoyl)-1-methyl-1,4,6,7-tetrahydro-5H-imidazo[4,5-c]pyridin-5-yl)ethyl)bicyclo[2.2.1]heptane-1-carboxylic acid]",,≤ 0.01
≤ 0.005,,≤ 0.01,"Cn1c(C(=O)Nc2cccc(-c3cccc(NC(=O)c4nc5c(n4C)CCN(C4CCC4)C5)c3Cl)c2Cl)nc2c1CCN(CCC13CCC(C(=O)O)(CC1)C3)C2 [Example 6, 4-(2-(2-((2,2′-dichloro-3′-(5-cyclobutyl-1-methyl-4,5,6,7-tetrahydro-1H-imidazo[4,5-c]pyridine-2-carboxamido)-[1,1′-biphenyl]-3-yl)carbamoyl)-1-methyl-1,4,6,7-tetrahydro-5H-imidazo[4,5-c]pyridin-5-yl)ethyl)bicyclo[2.2.1]heptane-1-carboxylic acid]",,0.01 to 0.1
≤ 0.005,,≤ 0.01,"Cn1c(C(=O)Nc2cccc(-c3cccc(NC(=O)c4nc5c(n4C)CCN(Cc4cc(C(=O)O)n[nH]4)C5)c3Cl)c2Cl)nc2c1CCN(CCC13CCC(C(=O)O)(CC1)C3)C2 [Example 26, 5-((2-((3′-(5-(2-(4-carboxybicyclo[2.2.1]heptan-1-yl)ethyl)-1-methyl-4,5,6,7-tetrahydro-1H-imidazo[4,5-c]pyridine-2-carboxamido)-2,2′-dichloro-[1,1′-biphenyl]-3-yl)carbamoyl)-1-methyl-1,4,6,7-tetrahydro-5H-imidazo[4,5-c]pyridin-5-yl)methyl)-1H-pyrazole-3-carboxylic acid]",,0.01 to 0.1
